What all share (experiment): MIC, broth microdilution
What all share (assay type): cell-based
In general terms: Dilution methods test growth across graded concentrations, often in twofold steps.

The subject of assay [1] is Methicillin-resistant S. epidermidis ATCC 51625. The note with it: Staphylococcus epidermidis, ATCC 51625 / MRSE; Methicillin-resistant S. epidermidis ATCC 51625; read-out: Minimum inhibitory concentration MRSE^e. As for the experimental part: (§1) The minimum inhibitory concentration of 3H-imidazo[4,5-C]pyridine pleuromutilin onium salt derivatives against the tested pathogenic microorganisms were determined by broth microdilution method, with valnemulin and retapamulin as positive controls.
(§2) The experimental strains included resistant Gram-positive bacteria: Methicillin-resistant S. aureus ATCC 33591; Methicillin-resistant S. aureus ATCC 43300; S. aureus ATCC 29213; Methicillin-resistant S. epidermidis ATCC 51625. Resistant Gram-negative bacteria: A. baumannii ATCC 19606; S. enterica ATCC14028; E. coli ATCC 25922; E. coli CMCC 44103. 9 clinically isolated resistant strains: MRSA-171; MRSA-575; MRSA-206; MRSA-222; MRSA-596; VRE-80; MDR-PA-126; MDR-KP-893; CR-AB-882.
(§3) (1) Preparation of MHB medium: Weigh 18.0 g of MHB medium pre-made powder, add it to 1 L of distilled water, heat and boil until completely dissolved, divide it into conical bottles, sterilize it by high pressure at 121° C. for 15 minutes, and set aside.
(§4) (2) Cultivate the experimental strain to the logarithmic growth phase: Under sterile conditions, inoculate the experimental strain into fresh MHB medium and culture it in a 37° C. constant temperature and humidity incubator for 16-24 hours. Adjust the bacterial solution concentration to 1.5×10^8 CFU/mL and then dilute it 200 times for later use.
(§5) (3) Preparation of storage solution: Weigh the sample to be tested, dissolve it in 1% DMSO solution, and prepare a storage solution with a concentration of 2560 μg/mL; weigh the positive control, dissolve it in sterile distilled water, and prepare a storage solution with a concentration of 2560 μg/mL.
(§6) (4) Preparation of bacterial suspension: Under sterile conditions, the experimental strain cultured to the logarithmic growth phase was calibrated to a 0.5 McFarland unit turbidity standard using MHB medium and then diluted at a ratio of 1:200 to prepare a bacterial suspension with a concentration of 5×10^5 CFU/mL for later use.
(§7) (5) Determination of MIC by two-fold microdilution method: Take a sterile 96-well plate, add 10 μL of the test compound at a concentration of 2560 μg/mL, and perform serial dilutions by the two-fold dilution method. At the same time, set up a negative control group without drug. Then add 190 μL of diluted bacterial solution to each well, so that the final bacterial solution concentration in each well is 5×10^5 CFU/mL, and incubate in a 37° C. constant temperature and humidity chamber for 24 hours.

Assay [2] has as its system A. baumannii ATCC 19606. To be noted: Acinetobacter baumannii, ATCC19606; A. baumannii ATCC 19606; read-out: Minimum inhibitory concentration A.b.^f. How it is done:
as §1, §2, §3, §4, §5, §6, §7

The subject of assay [3] is S. aureus ATCC 29213. To be noted: Staphylococcus aureus, ATCC29213; S. aureus ATCC 29213; read-out: Minimum inhibitory concentration S.a.^d. How it is done: as §1, §2, §3, §4, §5, §6, §7
The test system of assay [4] is E. coli ATCC 25922. The note with it: Escherichia coli, ATCC25922; E. coli ATCC 25922; read-out: Minimum inhibitory concentration E.c.^h. As for the experimental part:
as §1, §2, §3, §4, §5, §6, §7

Assay [5] concerns Methicillin-resistant S. aureus ATCC 43300. The note with it: Staphylococcus aureus, ATCC 43300 / MRSA; Methicillin-resistant S. aureus ATCC 43300; read-out: Minimum inhibitory concentration MRSA^c. How it is done: as §1, §2, §3, §4, §5, §6, §7
Assay [6] concerns E.coli CMCC 44103. The note with it: Escherichia coli, CMCC44103; E.coli CMCC 44103; read-out: Minimum inhibitory concentration E.c.^i. How it is done: as §1, §2, §3, §4, §5, §6, §7
In assay [7] the test system is S. enterica ATCC14028. The note with it: Salmonella enterica; S. enterica ATCC14028; read-out: Minimum inhibitory concentration S.e.^g. How it is done: as §1, §2, §3, §4, §5, §6, §7
For assay [8], the system named is Methicillin-resistant S. aureus ATCC 33591. The note with it: Staphylococcus aureus, ATCC 33591 / MRSA; Methicillin-resistant S. aureus ATCC 33591; read-out: Minimum inhibitory concentration MRSA^b. How it is done:
as §1, §2, §3, §4, §5, §6, §7

Each structure is given as a SMILES string.

As for `C=C[C@]1(C)C[C@@H](OC(=O)CSc2nc3cc[n+](Cc4ccc(Br)cc4)cc3[nH]2)[C@]2(C)[C@H](C)CC[C@]3(CCC(=O)[C@H]32)[C@@H](C)[C@@H]1O` [Compound a, 5-(4-bromobenzyl)-2-((2-(((3aR,4R,5R,7S,8S,9R,9aS,12R)-8-hydroxy-4,7,9,12-tetramethyl-3-oxo-7-vinyldecahydro-4,9a-propancyclopenta[8]cyclo-5-yl)oxy)-2-oxoethyl)thio)-3H-imidazo[4,5-c]pyridin-5-ium], the MIC is 16 µg/mL in assay [1]; 32 µg/mL in assay [2]; 8 µg/mL in assay [3]; 16 µg/mL in assay [4]; 4 µg/mL in assay [5]; 8 µg/mL in assay [6]. The MIC was determined as 4 µg/mL in assay [7] and 8 µg/mL in assay [8].

Take `C=C[C@]1(C)C[C@@H](OC(=O)CSc2nc3cc[n+](Cc4ccc(C(F)(F)F)cc4)cc3[nH]2)[C@]2(C)[C@H](C)CC[C@]3(CCC(=O)[C@H]32)[C@@H](C)[C@@H]1O` [Compound b, 5-(4-trifluoromethyl)-2-((2-(((3aR,4R,5R,7S,8S,9R,9aS,12R)-8-hydroxy-4,7,9,12-tetramethyl-3-oxo-7-vinyldecahydro-4,9a-propancyclopenta[8]cyclo-5-yl)oxy)-2-oxoethyl)thio)-3H-imidazo[4,5-C]pyridine-5-ium]: the MIC was determined as 32 µg/mL in assay [1]; 64 µg/mL in assay [2]; 64 µg/mL in assay [3]; 32 µg/mL in assay [4]; 64 µg/mL in assay [5]; 16 µg/mL in assay [6]. Also, the results for the MIC in assay [7] and in assay [8] were 16 µg/mL and 32 µg/mL, respectively.

Regarding `C=C[C@]1(C)C[C@@H](OC(=O)CSc2nc3cc[n+](Cc4ccc(F)cc4)cc3[nH]2)[C@]2(C)[C@H](C)CC[C@]3(CCC(=O)[C@H]32)[C@@H](C)[C@@H]1O` [Compound c, 5-(4-fluorobenzyl)-2-((2-(((3aR,4R,5R,7S,8S,9R,9aS,12R)-8-hydroxy-4,7,9,12-tetramethyl-3-oxo-7-vinyldecahydro-4,9a-propancyclopenta[8]cyclo-5-yl)oxy)-2-oxoethyl)thio)-3H-imidazo[4,5-C]pyridine-5-ium], the MIC in assay [1] was found to be 16 µg/mL; in assay [2], 32 µg/mL; in assay [3], 4 µg/mL; in assay [4], 8 µg/mL; in assay [5] it was 16 µg/mL; in assay [6] it was 8 µg/mL. For the same compound, the MIC in assay [7] is 16 µg/mL; in assay [8] it was 8 µg/mL.

In the case of `C=C[C@]1(C)C[C@@H](OC(=O)CSc2nc3cc[n+](Cc4ccc(OC)cc4)cc3[nH]2)[C@]2(C)[C@H](C)CC[C@]3(CCC(=O)[C@H]32)[C@@H](C)[C@@H]1O` [Compound d, 5-(4-methoxybenzyl)-2-((2-(((3aR,4R,5R,7S,8S,9R,9aS,12R)-8-hydroxy-4,7,9,12-tetramethyl-3-oxo-7-vinyldecahydro-4,9a-propancyclopenta[8]cyclo-5-yl)oxy)-2-oxoethyl)thio)-3H-imidazo[4,5-C]pyridine-5-ium], the MIC stood at 16 µg/mL in assay [1]; 16 µg/mL in assay [2]; 32 µg/mL in assay [3]; 4 µg/mL in assay [4]; 8 µg/mL in assay [5]; 32 µg/mL in assay [6]. In addition, the MIC in assay [7] and in assay [8] was 16 µg/mL in each case.

With `C=C[C@]1(C)C[C@@H](OC(=O)CSc2nc3cc[n+](Cc4ccc(Cl)cc4)cc3[nH]2)[C@]2(C)[C@H](C)CC[C@]3(CCC(=O)[C@H]32)[C@@H](C)[C@@H]1O` [Compound e, 5-(4-chlorobenzyl)-2-((2-(((3aR,4R,5R,7S,8S,9R,9aS,12R)-8-hydroxy-4,7,9,12-tetramethyl-3-oxo-7-vinyldecahydro-4,9a-propancyclopenta[8]cyclo-5-yl)oxy)-2-oxoethyl)thio)-3H-imidazo[4,5-C]pyridine-5-ium], the MIC is 16 µg/mL in assay [1]; 16 µg/mL in assay [2]; 8 µg/mL in assay [3]; 32 µg/mL in assay [4]; 16 µg/mL in assay [5]; 16 µg/mL in assay [6]. The MIC in assay [7] and in assay [8] was 32 µg/mL each time.

On to `C=C[C@]1(C)C[C@@H](OC(=O)CSc2nc3cc[n+](Cc4ccc([N+](=O)[O-])cc4)cc3[nH]2)[C@]2(C)[C@H](C)CC[C@]3(CCC(=O)[C@H]32)[C@@H](C)[C@@H]1O` [Compound f, 5-(4-nitrobenzyl)-2-((2-(((3aR,4R,5R,7S,8S,9R,9aS,12R)-8-hydroxy-4,7,9,12-tetramethyl-3-oxo-7-vinyldecahydro-4,9a-propancyclopenta[8]cyclo-5-yl)oxy)-2-oxoethyl)thio)-3H-imidazo[4,5-C]pyridine-5-ium], for which the MIC in assay [1] was 4 µg/mL; in assay [2], 8 µg/mL; in assay [3] it was 4 µg/mL; in assay [4], 16 µg/mL; in assay [5], 2 µg/mL; in assay [6], 8 µg/mL. The figures for the MIC in assay [7] and in assay [8] were 4 µg/mL and 8 µg/mL, respectively.

As for `C=C[C@]1(C)C[C@@H](OC(=O)CSc2nc3cc[n+](Cc4cc(F)c(F)cc4F)cc3[nH]2)[C@]2(C)[C@H](C)CC[C@]3(CCC(=O)[C@H]32)[C@@H](C)[C@@H]1O` [Compound g, 5-(2,4,5-trifluorobenzyl)-2-((2-(((3aR,4R,5R,7S,8S,9R,9aS,12R)-8-hydroxy-4,7,9,12-tetramethyl-3-oxo-7-vinyldecahydro-4,9a-propancyclopenta[8]cyclo-5-yl)oxy)-2-oxoethyl)thio)-3H-imidazo[4,5-C]pyridine-5-ium], the MIC in assay [1] is 64 µg/mL; in assay [2], 64 µg/mL; in assay [3], 64 µg/mL; in assay [4], 64 µg/mL; in assay [5], 64 µg/mL; in assay [6] it was 128 µg/mL. The MIC in assay [7] and in assay [8] was 128 µg/mL in each case.

With `C=C[C@]1(C)C[C@@H](OC(=O)CSc2nc3cc[n+](Cc4ccc(-c5ccccc5)cc4)cc3[nH]2)[C@]2(C)[C@H](C)CC[C@]3(CCC(=O)[C@H]32)[C@@H](C)[C@@H]1O` [Compound j, 5-([1,1′-biphenyl]-4-ylmethyl)-2-((2-(((3aR,4R,5R,7S,8S,9R,9aS,12R)-8-hydroxy-4,7,9,12-tetramethyl-3-oxo-7-vinyldecahydro-4,9a-propancyclopenta[8]cyclo-5-yl)oxy)-2-oxoethyl)thio)-3H-imidazo[4,5-C]pyridine-5-ium], the MIC in assay [1] amounted to 32 µg/mL; in assay [2] it was 16 µg/mL; in assay [3], 4 µg/mL; in assay [4], 64 µg/mL; in assay [5] it was 16 µg/mL; in assay [6], 8 µg/mL. Besides, the MIC in assay [7] stood at 8 µg/mL; in assay [8], 32 µg/mL.

With `C=C[C@]1(C)C[C@@H](OC(=O)CSc2nc3cc[n+](Cc4ccc(C(C)(C)C)cc4)cc3[nH]2)[C@]2(C)[C@H](C)CC[C@]3(CCC(=O)[C@H]32)[C@@H](C)[C@@H]1O` [Compound k, 5-(4-(tert-butyl)benzyl)-2-((2-(((3aR,4R,5R,7S,8S,9R,9aS,12R)-8-hydroxy-4,7,9,12-tetramethyl-3-oxo-7-vinyldecahydro-4,9a-propancyclopenta[8]cyclo-5-yl)oxy)-2-oxoethyl)thio)-3H-imidazo[4,5-C]pyridine-5-ium], the MIC in assay [1] came out at 8 µg/mL; in assay [2] it was 16 µg/mL; in assay [3], 16 µg/mL; in assay [4], 32 µg/mL; in assay [5], 32 µg/mL; in assay [6], 32 µg/mL. The values for the MIC in assay [7] and in assay [8] were 32 µg/mL and 8 µg/mL, respectively.

(Values after patent US12275734B1, “Pleuromutilin onium salt derivative containing a 3H-imidazo[4,5-c]pyridine side chain, and a preparation method and application thereof” (SHAANXI UNIVERSITY OF SCIENCE AND TECHNOLOGY, priority 2024, dated 2025).)
